Literature values, collected in US11786526B2, “Pharmaceutical composition comprising rosuvastatin and ezetimibe and a preparation method thereof” (SANOFI, priority 2016, dated 2023).

Experiments:
[1] = not given; remark: listed apart in the source

Stability in an acidic environment	Solubility in water [1]	Compound
unstable in an acidic environment	–	CC(C)c1nc(N(C)S(C)(=O)=O)nc(-c2ccc(F)cc2)c1/C=C/[C@@H](O)C[C@@H](O)CC(=O)O [rosuvastatin, (3R,5S,6E)-7-[4-(4-fluorophenyl)-2-(N-methylmethanesulfonamido)-6-(propan-2-yl)pyrimidin-5-yl]-3,5-dihydroxyhept-6-enoic acid]
–	almost insoluble in water	O=C1[C@H](CC[C@H](O)c2ccc(F)cc2)[C@@H](c2ccc(O)cc2)N1c1ccc(F)cc1 [Ezetimibe, (3R,4S)-1-(4-fluorophenyl)-3-[(3S)-3-(4-fluorophenyl)-3-hydroxypropyl]-4-(4-hydroxyphenyl)azetidin-2-one]
